Measured values as given in article PMC10381533, “Inhibitory Effects of the Fungal Pigment Rubiginosin C on Hyphal and Biofilm Formation in Candida albicans and Candida auris” (Journal of Fungi, 2023).
Where two headings read alike, the source gives them in different places. *1 amine or outer side, *2 acyl side, *3 side chain or, on linkers, in order; H or OH if unused. Where a SMILES comes first, the peptide text is derived from it. [ ]: non-standard residue; d: D form. The star is where a group is joined. X1 = O=C(C[C@H](N[*:1])c1ccc(O)cc1)[*:2]; dVal(3-OH) = CC(C)(O)[C@@H](N)C(=O)O; ΔIle(E) = CC/C(C)=C(/N)C(=O)O; Isovaleryl = CC(C)CC(=O)*; Agmatine = N=C(N)NCCCCN*; NMeA = CN[C@@H](C)C(=O)O; ΔVal = CC(C)=C(N)C(=O)O

What was measured:
[1] = tested on: Pseudomonas aeruginosa (PA 14) DSM 19882 biofilm; assay: Crystal violet biofilm inhibition assay, P. aeruginosa; format: cell-based; conditions: assay conducted once
Description: Selected azaphilones Rub C and W, Rut A and B were tested against the formation of biofilms in Pseudomonas aeruginosa (PA 14) DSM 19882. Bacterial strain was precultured in 25 mL LB medium (Luria - Bertani Broth) with a 250 mL flask at 37 °C with shaking 100 rpm overnight. The turbidity of the baterial solution was measured and diluted to match the turbidity of a 0.1 McFarland standard in M63 medium, which is supplemented with magnesium sulfate, glucose and casamino acids as previously described. The compounds were added into 150 μL bacterial solution at the concentration (250–2 μg/mL) then the solution was added in U-bottom 96 well plate (Falcon ref.no 351177, Thermo Fisher Scientific). The plates were incubated at 37 °C at 150 rpm for 24 h and biofilms were established at the air liquid interface. The plates were rinsed once by using PBS buffer, the biofilms were stained by 150 μL 0.1% CV at room temperature for 15 min and then rinsed two times by using PBS buffer. The absorbance was quantified with the plate reader (Synergy 2, BioTek) at 550 nm using ethanol (95%). Methanol (2.5 %) and myxovalargin A (250 –2 μg/mL) were used as negative control and positive control, respectively. The assay was conducted for […]
(§1) Table S2: Selected azaphilones were tested against the formation of biofilm of S. aureus, P. aeruginosa as well as C. auris and dispersal effect on preformed biofilm of S. aureus compared to solvent control (= 0%), respectively. SDs are shown as ±SD.
(§2) Compounds Strains Concentrations [µg/mL] […]

[2] = tested on: Staphylococcus aureus (DSM 1104) biofilm; assay: Crystal violet biofilm inhibition assay, S. aureus; format: cell-based
Description: Selected azaphilones Rub C and W, Rut A and B were tested against the formation of biofilms in Staphylococcus aureus (DSM 1104). S. aureus DSM 1104 from a −20 °C stock was precultured in 25 mL CASO (casein-peptone soymeal-peptone) medium in a 250 mL flask at 37 °C with 100 rpm for 20 h. The OD600 of the culture solution was adjusted to 0.001 McFarland standard and incubated in 96-well microtiter plates (TPP tissue culture ref.no 92196, Switzerland) for 18 h at 37 °C with 150 μL of serially diluted test […]
(§3) compounds (250–2 μg/mL) in CASO with 4% glucose broth. The inhibition of biofilm formation was evaluated by staining with 150 μL of 0.1% crystal violet (CV; Thermo Fisher) following previously established protocols. In the next step, the supernatant of the 96-well plate was discarded and the wells were rinsed once with PBS buffer. The remaining biofilms were stained at room temperature for 15 min, rinsed three times with PBS buffer, and finally dissolved in 150 μL ethanol (95%). The absorbance of the resulting solution at 530 nm was quantified using a plate reader (Synergy 2, BioTek). Methanol (2.5%) and microporenic acid A (MAA) (250–2 μg/mL) were used as negative and positive controls. Standard deviations (SD) of two repeats with duplicates were 10% or less. […]
μg/mL) were used as negative control and positive control, respectively. The assay was conducted for […]
as §1, §2

[3] = tested on: preformed S. aureus biofilm; assay: Dispersal effect on preformed S. aureus biofilm; format: cell-based, Staphylococcus aureus
Description: as §3, §1, §2

[4] = tested on: human endocervical adenocarcinoma KB-3-1 [ACC 158] cells; assay: MTT cytotoxicity assay, KB-3-1; format: cell-based; conditions: KB 3-1
Description: (§4) Cytotoxic effects were evaluated on human endocervical adenocarcinoma KB-3-1 [ACC 158] cells and mouse fibroblasts L929 [ACC 2] upon treatment with Rub C, W, and Rut A and B within the concentration range of 37 μg/mL–0.63 ng/mL. The half-maximum inhibitory concentrations (IC50) were determined by standard MTT assays as reported previously (see the Supplementary Material for detailed information). The IC50 values of Rub A and Z have currently been reported. […]
(§5) KB-3-1 (ACC 158) cervix carcinoma as well as L929 (ACC 2) mouse fibroblasts were cultured under standard cell culture conditions (37 °C, 5% CO2, 95% humidified atmosphere). The cells were maintained in high glucose DMEM containing 10% fetal bovine serum and 100 U/mL penicillin and streptomycin (Gibco, Thermo Fisher Scientific, Waltham, USA). Cell lines were serially passaged after trypsinization, using 0.05% trypsin / 0.02% EDTA solution. The cultures were routinely monitored for potential contamination, and only mycoplasma free cultures were used. The test compounds were investigated for their anti-proliferative effect on cell lines, using the 3-(4,5-dimethylthiazol-2-yl)-2,5-diphenyltetrazolium bromide (MTT) based cell viability assay. Cells were seeded in 96 well microtiter plates (Sarstedt, Germany) with a cell density of 0.05 * 10^6 cells per mL and 100 μL per well and were incubated for 24 h. […]
(§6) Absorbances at 570 nm and 630 nm were measured with a plate reader (Tecan, Männedorf, canton of Zürich, Switzerland). Background absorbance (630 nm) was subtracted from the formazan signal (570 nm). The resulting absorbance is directly proportional to the amount of viable cells. The control was normalized to 100% viable cells, and the viability of cells treated with the test compounds was calculated accordingly. IC50 values were calculated based on a sigmoidal fit model using GraphPad Prism. Means and SD were calculated from at least four independent experiments. […]

[5] = tested on: mouse fibroblasts L929 [ACC 2]; assay: MTT cytotoxicity assay, L929; format: cell-based
Description: as §4, §5, §6

[6] = tested on: human endocervical adenocarcinoma KB-3-1 [ACC 158] cells; conditions: second value of the cell; cited from earlier work
[7] = tested on: mouse fibroblasts L929 [ACC 2]; conditions: second value of the cell; cited from earlier work

CC/C(C)=C(/NC(=O)[C@H](NC(=O)[C@H](NC(=O)[C@@H](CCCN=C(N)N)NC(=O)C(NC(=O)[C@@H](NC(=O)C[C@H](NC(=O)[C@H](NC(=O)[C@H](NC(=O)[C@H](C)N(C)C(=O)[C@H](C)NC(=O)C(NC(=O)CC(C)C)=C(C)C)C(C)C)C(C)C)c1ccc(O)cc1)C(C)C)=C(C)C)C(C)C)C(C)C)C(=O)N[C@H](C)C(=O)N[C@@H](C(=O)NCCCCN=C(N)N)C(C)(C)O [Myxovalargin A, myxovalargin A, reference compound] (Isovaleryl-[ΔVal]A[NMeA][dV][dV][X1]V[ΔVal][dR][dV][dV][ΔIle(E)][dA][dVal(3-OH)]-Agmatine)
inhibition of P. aeruginosa biofilm formation compared to solvent control (= 0%) ([1]; 2 µg/mL): / ((/) no activity) | inhibition of P. aeruginosa biofilm formation compared to solvent control (= 0%) ([1]; 3.9 µg/mL): / ((/) no activity) | inhibition of P. aeruginosa biofilm formation compared to solvent control (= 0%) ([1]; 7.8 µg/mL): / ((/) no activity) | inhibition of P. aeruginosa biofilm formation compared to solvent control (= 0%) ([1]; 15.6 µg/mL): / ((/) no activity) | inhibition of P. aeruginosa biofilm formation compared to solvent control (= 0%) ([1]; 31.3 µg/mL): 61% | inhibition of P. aeruginosa biofilm formation compared to solvent control (= 0%) ([1]; 62.5 µg/mL): 59% | inhibition of P. aeruginosa biofilm formation compared to solvent control (= 0%) ([1]; 125 µg/mL): 65% | inhibition of P. aeruginosa biofilm formation compared to solvent control (= 0%) ([1]; 250 µg/mL): 55%

CC(C)=CCC/C(C)=C/CC/C(C)=C/CC/C(C)=C/CO[C@@H](C(=O)O)[C@H](CC(=O)O)C(=O)O [MAA, microporenic acid A, reference compound]
inhibition of S. aureus biofilm formation compared to solvent control (= 0%) ([2]; 2 µg/mL): / ((/) no activity) | inhibition of S. aureus biofilm formation compared to solvent control (= 0%) ([2]; 3.9 µg/mL): 45 ±10% | inhibition of S. aureus biofilm formation compared to solvent control (= 0%) ([2]; 7.8 µg/mL): 77 ±10% | inhibition of S. aureus biofilm formation compared to solvent control (= 0%) ([2]; 15.6 µg/mL): 83 ±6% | inhibition of S. aureus biofilm formation compared to solvent control (= 0%) ([2]; 31.3 µg/mL): 86 ±4% | inhibition of S. aureus biofilm formation compared to solvent control (= 0%) ([2]; 62.5 µg/mL): 86 ±4% | inhibition of S. aureus biofilm formation compared to solvent control (= 0%) ([2]; 125 µg/mL): 85 ±5% | inhibition of S. aureus biofilm formation compared to solvent control (= 0%) ([2]; 250 µg/mL): 83 ±6% | dispersal effect on preformed biofilm of S. aureus compared to solvent control (= 0%) ([3]; 15.6 µg/mL): 33 ±10% | dispersal effect on preformed biofilm of S. aureus compared to solvent control (= 0%) ([3]; 31.3 µg/mL): 54 ±6% | dispersal effect on preformed biofilm of S. aureus compared to solvent control (= 0%) ([3]; 62.5 µg/mL): 60 ±9% | dispersal effect on preformed biofilm of S. aureus compared to solvent control (= 0%) ([3]; 125 µg/mL): 65 ±7% | dispersal effect on preformed biofilm of S. aureus compared to solvent control (= 0%) ([3]; 250 µg/mL): 65 ±4%

C/C(=C\c1csc(C)n1)[C@@H]1C[C@@H]2O[C@]2(C)CCC[C@H](C)[C@H](O)[C@@H](C)C(=O)C(C)(C)[C@@H](O)CC(=O)O1 [Epothilone B, reference compound]
IC50 [4]: 0.053 nM | IC50 [5]: 0.17 nM | IC50 [6]: 0.028 nM | IC50 [7]: 0.031 nM
